Results published in patent US8951397B2, “Electrophoretic analysis method” (Godo Shusei Co., Ltd., priority 2009, dated 2015).

Biological target: T1, D protease (Paenibacillus polymyxa, UniProt P29148)
T1 sequence (P29148 287-590): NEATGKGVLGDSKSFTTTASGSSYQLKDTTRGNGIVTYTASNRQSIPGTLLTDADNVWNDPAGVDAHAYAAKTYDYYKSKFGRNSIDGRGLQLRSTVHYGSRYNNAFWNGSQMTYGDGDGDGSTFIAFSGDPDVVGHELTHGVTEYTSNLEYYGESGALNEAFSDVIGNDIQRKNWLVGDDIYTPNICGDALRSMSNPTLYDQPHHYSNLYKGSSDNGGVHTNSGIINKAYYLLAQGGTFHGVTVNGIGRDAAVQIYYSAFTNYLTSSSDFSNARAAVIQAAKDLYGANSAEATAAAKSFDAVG
Assay: Inhibition, activation and stabilization of D protease
Type: biochemical
Details: not given
For `[Ca+2]` [Ca^2+], the “Stabilization of D protease” value was “stabilized”.
For `[Zn+2]` [zinc ion], the “Activation of D protease” value was “activation thereof requires zinc ion”.

Same assay, conditions: metal chelating agents and oxidizing agents
In the case of `c1ccc(-c2ccccn2)nc1` [2,2-dipyridyl], the “Inhibition of D protease” value is reported as “inhibited”.
For `O=C1CCC(=O)N1Br` [N-bromosuccinimide], the “Inhibition of D protease” value was “inhibited”.
In the case of `c1cnc2c(c1)ccc1cccnc12` [O-phenanthroline], the “Inhibition of D protease” value is reported as “inhibited”.
For `O=C(O)CC(O)(CC(=O)O)C(=O)O` [citric acid], the “Inhibition of D protease” value was “inhibited”.
For `II` [iodine], the “Inhibition of D protease” value was “inhibited”.
In the case of `[F-].[Na+]` [sodium fluoride], the “Inhibition of D protease” value is reported as “inhibited”.

Biological target: T1, D protease
Assay: not given
Details: Patent Document 1; cited from earlier work
In the case of `[Al+3]` [Al^3+], the “Effect on D protease activity” value is given as “activity enhanced”.
For `[Ca+2]` [Ca^2+], the “Effect on D protease activity” value is listed as “activity enhanced”.
For `[Fe+2]` [Fe^2+], the “Effect on D protease activity” value is listed as “activity enhanced”.
In the case of `[Mg+2]` [Mg^2+], the “Effect on D protease activity” value is given as “activity enhanced”.
In the case of `[Mn+2]` [Mn^2+], the “Effect on D protease activity” value is given as “activity enhanced”.
